Data from patent US8389677B2, “Antioxidant polypeptide and a process for isolation and purification of the same” (Adichunchanagiri Biotechnology and Cancer Research Institute, priority 2010, dated 2013).

Columns and labels:
lipid peroxidation = assay: Thio Barbituric Acid Reactive Substance (TBARS) antioxidant assay; assay type: biochemical; settings: concentration 400 μM
Protocol: (§1) ATE containing 2 mg protein was loaded on to the Sephadex G-50 column (VT=240 ml, VO=80 ml) and eluted with 0.1M Tris HCl, pH −7.4 containing 0.1 M NaCl and flow rate was 1.7 ml/5 min, Fractions were monitored at 280 nm. Two peaks were obtained namely Peak I and Peak II. Peak II depicts the polypeptide of the present invention (Arishinin) as shown in FIG. 1 and the Gel filtration chromatography profile of Aqueous Turmeric Extract. Peak II was pooled, concentrated and dialyzed against double distilled water at 4° C. using 2 KDa cut off dialysis membrane for 74 hrs. […] The antioxidant activity was done by TBARS and Hydroxy radical scavenging assay compared to standard antioxidant like BHA, Curcumin and α-tocopherol as positive controls. Cell viability test by Tryphan blue exclusion method was done to test the toxicity of Arishinin.
(§2) The quantification of water-soluble antioxidant polypeptide Arishinin, isolated by the process described in Examples 1 to 4 (as depicted in Table 1 above) was determined by the following methods. Protein estimation was done by Bradford's method (Bradford, M. M., 1976, Analytical Biochem., […]) with an absorption maximum at 595 nm and results shown in Table 1. The antioxidant activity of Arishinin was evaluated by Thio Barbituric Acid Reactive Substance (TBARS) (Shimasaki, H., et al., 1984, Biochem. Biophys. Acta, 792:123-129) and Deoxyribose method/Hydroxyl radical scavenging assay (Halliwell, B., et al., 1981, Methods of Biochemical Sciences, 33:59-90) with absorption maximum at 535 nm by using BHA, alpha tocopherol and Curcumin as standard antioxidants.

hydroxyl radical = assay: Deoxyribose method / Hydroxyl radical scavenging assay; assay type: biochemical; settings: concentration 400 μM
Protocol: as §1, §2

mice = settings: at more than 0.1% dose; cited from earlier work

COc1ccc(O)c(C(C)(C)C)c1 [BHA, Butylated Hydroxyl Anisole]
INHIBITION (%) TBARS (lipid peroxidation): 84 ± 1.5% | INHIBITION (%) Hydroxyl radical (hydroxyl radical): 80 ± 1% | carcinogenicity (fore-stomach tumour in mice) (mice): carcinogenic

Cc1cc(C(C)(C)C)c(O)c(C(C)(C)C)c1 [BHT, Butylated Hydroxy Toluene]
carcinogenicity (fore-stomach tumour in mice) (mice): carcinogenic

COc1cc(/C=C/C(=O)CC(=O)/C=C/c2ccc(O)c(OC)c2)ccc1O [Curcumin]
INHIBITION (%) TBARS (lipid peroxidation): 72 ± 1.5% | INHIBITION (%) Hydroxyl radical (hydroxyl radical): 68 ± 3%

Cc1c(C)c2c(c(C)c1O)CC[C@@](C)(CCC[C@H](C)CCC[C@H](C)CCCC(C)C)O2 [α-tocopherol]
INHIBITION (%) TBARS (lipid peroxidation): 92 ± 1% | INHIBITION (%) Hydroxyl radical (hydroxyl radical): 88 ± 2%
